Data reported in US7858635B2 (priority 2005, dated 2010).

Tests used:
[1] = target: T1, M4 muscarinic receptor (Homo sapiens, UniProt P08173); assay: Functional mobilization of intracellular calcium (FLIPR, Fluo-3), M4-CHO cells; type: cell-based; conditions: compound nos. 1-454; for Emax: read-out: M4 Efficacy; for M4 Activity: M4-CHO cells, calcium mobilization
T1 construct: expressed in transfected cells; host or cells: CHO cells (M4-CHO, under puromycin, zeocin and blasticidin selection)
T1 sequence (P08173 1-479): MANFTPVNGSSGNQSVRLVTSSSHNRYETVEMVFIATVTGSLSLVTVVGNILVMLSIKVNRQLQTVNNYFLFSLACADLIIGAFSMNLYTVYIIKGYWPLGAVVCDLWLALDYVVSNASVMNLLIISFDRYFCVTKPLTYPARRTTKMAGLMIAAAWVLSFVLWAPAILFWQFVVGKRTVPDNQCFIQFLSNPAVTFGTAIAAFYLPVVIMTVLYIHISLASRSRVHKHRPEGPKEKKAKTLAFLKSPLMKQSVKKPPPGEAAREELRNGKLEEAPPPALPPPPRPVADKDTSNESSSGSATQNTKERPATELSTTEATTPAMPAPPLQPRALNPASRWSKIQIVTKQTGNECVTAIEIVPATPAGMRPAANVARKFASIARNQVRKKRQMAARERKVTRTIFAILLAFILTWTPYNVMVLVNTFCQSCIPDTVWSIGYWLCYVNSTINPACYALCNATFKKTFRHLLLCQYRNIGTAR
Procedure: (§1) CHO cells expressing muscarinic receptors (M1 to M5) are grown as monolayers in tissue culture flasks at 37° C. in a humidified atmosphere containing 5% CO2 and passaged every 3-5 days. The growth media is Dulbecco's modified eagles medium (DMEM, Gibco Cat#12430-054), containing 25 mM Hepes and supplemented with Fetal Bovine Serum (Hyclone, cat# SH30071.03), 0.1 mM of MEM non-essential amino acids (GIBCO, Cat# 11140-050), 1 mM MEM Sodium Pyruvate (GIBCO Cat# 11360-070) and 100 units/ml of Penicillin G and 100 μg/ml of Streptomycin (GIBCO Cat# 15140-122). The recombinant muscarinic receptor cell lines are grown under antibiotic pressure with media containing 25 μm/ml zeocin and 500 μg/ml G418 (M1-CHO), 4 μg/ml puromycin, 50 μg/ml zeocin and 2.5 μm/ml blasticidin (M2 and M4-CHO) or 50 μg/ml zeocin and 4 μg/ml puromycin (M3 and M5-CHO).
(§2) Cells are harvested at 80-90% confluence using Versene (GIBCO Cat# 15040-066), collected by centrifugation and seeded 18-24 hrs prior to running the calcium assay at a density of 5,000-10,000 cells/well in […], clear-bottomed 384-well plates (BD Biocoat, poly-D-lysine, Cat#356663). The day of the experiment, the cells are washed with a plate washer (Bioteck Instruments, ELX 405) using bath1 buffer (140-mM NaCl, 4.5-mM KCL, 2-mM CaCl2, 1-mM MgCl2, 10-mM Hepes-Na, 10-mM Glucose, pH 7.4, with NaOH) containing 1 mM Probenecid. Next, the calcium dye Fluo-3 (25 μl/well of Fluo-3 μM at 4 μM, Molecular Probes F-1241, in Bath 1 buffer containing 1 mM Probenecid) is added to the 25 μl of Bath 1 remaining in each well after the plate wash and the dye is loaded at 37° C. in the tissue culture incubator for 60-90 min. The fluorescent dye is removed using the plate washer with Bath 1 containing 1 mM Probenecid, leaving 25 μl/well of this solution after the wash. Alternatively, cells can be loaded with the calcium indicator from Molecular Devices (Calcium 3 Assay Reagents, Cat # R7181) adding 5 μl of a 5× solution dye in Bath 1 containing 1 mM Probenecid (10 ml per dye flask cat# R7182 to generate a solution 20×) to 20 μl of the same buffer. After loading for 60 min, the experiment can be run without having to remove the dye.
(§3) Compounds are prepared at a 2× fold concentration in a 96-well plate (round bottom, Costar Corning cat# 3656), by reconstituting the pre-spotted compounds in bath 1 containing 1 mM probenecid. The final concentration DMSO is 0.5%, and the amount of DMSO is normalized across the assay plate. To determine an agonist action of the compounds on muscarinic receptors, the reconstituted compounds are added (25 μl compound/well) to the cell assay plate (containing 25 μl/well) using the multi-channel robotic system of the FLIPR 3 Instrument (Molecular Devices, Sunnyvale, Calif.). To determine a functional inhibitory action of the compounds on muscarinic receptors, the reconstituted compounds are added (25 μl compound/well) to the assay plate and pre-incubated for 15 min prior to adding 25 μl of Carbachol at 3× the EC80 for each muscarinic subtype. Alternatively, the compounds can be co-applied simultaneously with the agonist. In both assay modes, the fluorescence is recorded for 60 sec (excitation wavelength is […] and emission wavelength 540 nm) using the FLIPR 3 instrument.
(§4) The potency, efficacy and selectivity of the muscarinic compounds were evaluated by screening the compound activity across the whole family (M1 to M5 cells). Compounds were also screened for activity on other proteins such as other GPCRs and ion channels to determine selectivity on M4 receptors.

[2] = target: T2, M1 muscarinic receptor (Homo sapiens, UniProt P11229); assay: Functional mobilization of intracellular calcium (FLIPR, Fluo-3), M1-CHO cells; type: cell-based; conditions: compound nos. 1-454; for Emax: read-out: M1 Efficacy; for M1 Activity: M1-CHO cells, calcium mobilization
T2 construct: expressed in transfected cells; host or cells: CHO cells (M1-CHO, under zeocin and G418 selection)
T2 sequence (P11229 1-460): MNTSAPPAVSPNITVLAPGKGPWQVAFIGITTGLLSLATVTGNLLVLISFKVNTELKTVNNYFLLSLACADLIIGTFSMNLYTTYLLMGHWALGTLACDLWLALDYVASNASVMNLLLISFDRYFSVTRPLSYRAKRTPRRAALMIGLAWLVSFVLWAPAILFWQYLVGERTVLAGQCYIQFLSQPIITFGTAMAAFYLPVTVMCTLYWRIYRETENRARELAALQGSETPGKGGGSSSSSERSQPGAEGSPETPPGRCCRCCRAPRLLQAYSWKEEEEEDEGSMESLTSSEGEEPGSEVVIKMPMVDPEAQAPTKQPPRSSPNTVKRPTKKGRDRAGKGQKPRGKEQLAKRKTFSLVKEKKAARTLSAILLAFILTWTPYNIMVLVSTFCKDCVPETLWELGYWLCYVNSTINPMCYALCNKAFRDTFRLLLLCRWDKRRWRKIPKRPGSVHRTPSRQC
Procedure: as §1, §2, §3, §4

[3] = 100% efficacy is the maximum response obtained with the Carbachol control

| Structure (SMILES) | Emax [1, 3] [%] | M4 Activity [1] | Emax [2, 3] [%] | M1 Activity [2] | M4 Efficacy [1, 3] | M1 Efficacy [2, 3] |
| --- | --- | --- | --- | --- | --- | --- |
| CCOC(=O)N1CCC(N2CCC3(CC2)CNc2ccc(Cl)cc23)CC1 [compound 19] | 55 to 70 | ++ (activity was measured to be between 0.1 μM and 4.0 μM) | 65 to 85 | +++ (activity was measured to be less than or equal to 0.7 μM) |  |  |
| CCOC(=O)N1CCC(CN2CCC3(CC2)CN(C(C)=O)c2ccc(OC(F)(F)F)cc23)CC1 [compound 21] | < 55 | + (activity was measured to be greater than or equal to 4.0 μM) | < 65 | ++ (activity was measured to be between 0.7 μM and 3.0 μM) |  |  |
| CCOC(=O)N1CCC(N2CCC3(CC2)CN(C(=O)N2CCCC2)c2ccc(F)cc23)CC1 [compound 22] | < 55 | + (activity was measured to be greater than or equal to 4.0 μM) | 65 to 85 | +++ (activity was measured to be less than or equal to 0.7 μM) |  |  |
| Cc1ccc2c(c1)C1(CCN([C@@H]3C[C@@H]4CC[C@@H]3C4)CC1)CN2 [compound 23] |  | + (activity was measured to be greater than or equal to 4.0 μM) |  | ++ (activity was measured to be between 0.7 μM and 3.0 μM) | + (efficacy was calculated to be 55% or less) | + (efficacy was calculated to be 65% or less) |
| Cc1cc(C(=O)N2CC3(CCN(C4CC5CCC(C4)N5C(=O)OC(C)C)CC3)c3cc(F)ccc32)nn1C (stereo not drawn) [compound 24] | < 55 | + (activity was measured to be greater than or equal to 4.0 μM) | < 65 | ++ (activity was measured to be between 0.7 μM and 3.0 μM) |  |  |
| COCCOC(=O)N1CCC(CN2CCC3(CC2)CN(C(C)=O)c2ccc(F)cc23)CC1 [compound 26] | < 55 | ++ (activity was measured to be between 0.1 μM and 4.0 μM) | 65 to 85 | +++ (activity was measured to be less than or equal to 0.7 μM) |  |  |
| CCC1CCC(N2CCC3(CC2)CN(C(C)=O)c2ccc(F)cc23)CC1 (stereo not drawn) [compound 27] | 55 to 70 | +++ (activity was measured to be less than or equal to 0.1 μM) | 65 to 85 | +++ (activity was measured to be less than or equal to 0.7 μM) |  |  |
| CCOC(=O)N1C2CCC1CC(N1CCC3(CC1)CN(C(=O)O[C@@H]1CCOC1)c1ccc(F)cc13)C2 (stereo partly drawn) [compound 28] | 55 to 70 | ++ (activity was measured to be between 0.1 μM and 4.0 μM) | > 85 | +++ (activity was measured to be less than or equal to 0.7 μM) |  |  |
| CC(=O)N[C@H]1CC2(CCN(CC3CC4CCC3CC4)CC2)c2ccccc21 (stereo partly drawn) [compound 29] | > 70 | +++ (activity was measured to be less than or equal to 0.1 μM) | > 85 | +++ (activity was measured to be less than or equal to 0.7 μM) |  |  |
| CCOC(=O)N1CCC(N2CCC3(CC2)CN(C(=O)OCC(C)C)c2ccc(F)cc23)CC1 [compound 30] | > 70 | +++ (activity was measured to be less than or equal to 0.1 μM) | > 85 | +++ (activity was measured to be less than or equal to 0.7 μM) |  |  |
| CCOC(=O)N1CCC(N2CCC3(CC2)C(=O)N(C)c2ccccc23)CC1 [compound 31] | 55 to 70 | +++ (activity was measured to be less than or equal to 0.1 μM) | > 85 | +++ (activity was measured to be less than or equal to 0.7 μM) |  |  |
| CN(C)C(=O)N1CC2(CCN(C3CC4CCC(C3)N4C(=O)OCCF)CC2)c2cc(F)ccc21 (stereo not drawn) [compound 32] | 55 to 70 | +++ (activity was measured to be less than or equal to 0.1 μM) | > 85 | +++ (activity was measured to be less than or equal to 0.7 μM) |  |  |
| COCCOC(=O)N1C2CCC1CC(N1CCC3(CC1)CN(C(=O)OC)c1ccc(F)cc13)C2 (stereo not drawn) [compound 33] | > 70 | +++ (activity was measured to be less than or equal to 0.1 μM) | > 85 | +++ (activity was measured to be less than or equal to 0.7 μM) |  |  |
| CC(=O)N1CC2(CCN(C3CC4CCC(C4)C3)CC2)c2cc(F)ccc21 (stereo not drawn) [compound 35] | > 70 | ++ (activity was measured to be between 0.1 μM and 4.0 μM) | > 85 | +++ (activity was measured to be less than or equal to 0.7 μM) |  |  |
| CCCOC(=O)N1CCC(CN2CCC3(CC2)C[C@H](NC(C)=O)c2ccccc23)CC1 [compound 36] | > 70 | ++ (activity was measured to be between 0.1 μM and 4.0 μM) | 65 to 85 | +++ (activity was measured to be less than or equal to 0.7 μM) |  |  |
| Clc1ccc2c(c1)C1(CCN(C3CCOCC3)CC1)CN2 [compound 37] | > 70 | ++ (activity was measured to be between 0.1 μM and 4.0 μM) | 65 to 85 | +++ (activity was measured to be less than or equal to 0.7 μM) |  |  |
| CCOC(=O)N1CCC(N2CCC3(CC2)CN(C(=O)OCCOC)c2ccc(F)cc23)CC1 [compound 38] | > 70 | +++ (activity was measured to be less than or equal to 0.1 μM) | > 85 | +++ (activity was measured to be less than or equal to 0.7 μM) |  |  |
| CCOC(=O)N1CCC(N2CCC3(CC2)CN(C(=O)N(C)C)c2ccc(F)cc23)CC1 [compound 39] | > 70 | ++ (activity was measured to be between 0.1 μM and 4.0 μM) | 65 to 85 | +++ (activity was measured to be less than or equal to 0.7 μM) |  |  |
